Laboratory results from the supplement of paper PMC10627819.

Key:
B. subtilis 168 [1] = experiment: Bliss interaction score (quartile over a dose matrix) (fitness difference); higher = more antagonism (negative = synergy)
Method in brief: (§1)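 OD595 was read at entry into stationary phase and expressed relative to the robust mean of the no-drug wells on the same plate, capped at 1. The resulting ratio is the fitness value. The Bliss score, observed fitness minus product-based expected fitness with single-drug fitness inferred from combinations, is summarised by quartiles over technical, biological and donor/recipient replicates.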

S. aureus Newman [2] = experiment: as above
Method in brief: as §1

S. aureus DSM 20231 [3] = experiment: as above
Method in brief: as §1

S. pneumoniae D39V [4] = experiment: as above
Method in brief: as §1

B. subtilis 168 [5] = experiment: fitness (endpoint OD595 vs no drug) (fraction); higher = more growth
Method in brief: (§2)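 At 37 °C, bacteria in TSB, LB Lennox or CY were grown in 384-well plates from a starting OD595 of 0.01. OD595 was measured every 30 min for 14 h, with the first reading used as background. Fitness is the optical density at the switch to stationary phase as a fraction of the robust mean of no-drug control wells, capped at 1.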

S. aureus Newman [6] = experiment: as above
Method in brief: as §2

S. aureus DSM 20231 [7] = experiment: as above
Method in brief: as §2

S. pneumoniae D39V [8] = experiment: as above
Method in brief: as §2
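Wherever Bliss interaction score (quartile over a dose matrix) is given: first quartile when negative (synergy) and third quartile when positive (antagonism).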

Cc1ncc([N+](=O)[O-])n1CCO [Metronidazole] + C[n+]1ccc(-c2cc[n+](C)cc2)cc1 [Paraquat]
Conditions | Bliss interaction score
B. subtilis 168 [1] | 0.0442
S. aureus DSM 20231 [3] | 0.0478
S. aureus Newman [2] | 0.0779
S. pneumoniae D39V [4] | -0.0431

fitness
Conditions | first compound 0.625 µg/mL | first compound 1.073 µg/mL | first compound 1.25 µg/mL | first compound 2.145 µg/mL | first compound 2.5 µg/mL | first compound 4.29 µg/mL
B. subtilis 168 [5], partner 1.25 µg/mL | 0.973 | – | 0.949 | – | 0.917 | –
B. subtilis 168 [5], partner 2.5 µg/mL | 0.957 | – | 0.929 | – | 0.917 | –
B. subtilis 168 [5], partner 5 µg/mL | 0.851 | – | 0.864 | – | 0.851 | –
S. aureus DSM 20231 [7], partner 1.25 µg/mL | 0.97 | – | ≥ 1 | – | ≥ 1 | –
S. aureus DSM 20231 [7], partner 2.5 µg/mL | 0.954 | – | ≥ 1 | – | ≥ 1 | –
S. aureus DSM 20231 [7], partner 5 µg/mL | 0.955 | – | 0.978 | – | ≥ 1 | –
S. aureus Newman [6], partner 1.25 µg/mL | 0.936 | – | 0.875 | – | 0.862 | –
S. aureus Newman [6], partner 2.5 µg/mL | 0.944 | – | 0.934 | – | 0.963 | –
S. aureus Newman [6], partner 5 µg/mL | 0.888 | – | 0.932 | – | 0.973 | –
S. pneumoniae D39V [8], partner 1.5 µg/mL | – | 0.969 | – | 0.958 | – | 0.899
S. pneumoniae D39V [8], partner 3 µg/mL | – | 0.999 | – | 0.905 | – | 0.95
S. pneumoniae D39V [8], partner 6 µg/mL | – | 0.982 | – | 0.803 | – | 0.912

fitness, one replicate
Conditions | first compound 0.781 µg/mL | first compound 1.25 µg/mL | first compound 1.562 µg/mL | first compound 2.5 µg/mL | first compound 3.124 µg/mL | first compound 5 µg/mL
S. aureus Newman [6], partner 1.25 µg/mL | 0.916 | – | 0.899 | – | 0.844 | –
S. aureus Newman [6], partner 2.5 µg/mL | 0.951 | – | 0.874 | – | 0.908 | –
S. aureus Newman [6], partner 5 µg/mL | 0.919 | – | 0.907 | – | 0.984 | –
S. pneumoniae D39V [8], partner 1.5 µg/mL | – | 0.983 | – | ≥ 1 | – | ≥ 1
S. pneumoniae D39V [8], partner 3 µg/mL | – | 0.99 | – | ≥ 1 | – | ≥ 1
S. pneumoniae D39V [8], partner 6 µg/mL | – | ≥ 1 | – | ≥ 1 | – | ≥ 1

Cc1ncc([N+](=O)[O-])n1CCO [Metronidazole] + CCN(CC)CCOC(=O)c1ccc(N)cc1 [Procaine]
Conditions | Bliss interaction score
B. subtilis 168 [1] | -0.0393
S. aureus DSM 20231 [3] | 0.0477
S. aureus Newman [2] | 0.0807
S. pneumoniae D39V [4] | -0.0526

fitness
Conditions | partner 85.5 µg/mL | partner 171 µg/mL | partner 342 µg/mL
B. subtilis 168 [5], first compound 0.625 µg/mL | 0.94 | 0.944 | 0.876
B. subtilis 168 [5], first compound 1.25 µg/mL | 0.935 | 0.956 | 0.937
B. subtilis 168 [5], first compound 2.5 µg/mL | 0.896 | 0.868 | 0.958
S. aureus DSM 20231 [7], first compound 0.625 µg/mL | 0.996 | ≥ 1 | ≥ 1
S. aureus DSM 20231 [7], first compound 1.25 µg/mL | 0.977 | ≥ 1 | ≥ 1
S. aureus DSM 20231 [7], first compound 2.5 µg/mL | 0.938 | ≥ 1 | ≥ 1
S. aureus Newman [6], first compound 0.625 µg/mL | 0.934 | 0.934 | 0.686
S. aureus Newman [6], first compound 1.25 µg/mL | 0.858 | 0.988 | –
S. aureus Newman [6], first compound 2.5 µg/mL | 0.814 | 0.876 | –
S. pneumoniae D39V [8], first compound 1.073 µg/mL | 0.979 | 0.969 | 0.939
S. pneumoniae D39V [8], first compound 2.145 µg/mL | 0.911 | 0.948 | 0.89
S. pneumoniae D39V [8], first compound 4.29 µg/mL | 0.914 | 0.894 | 0.927

fitness, one replicate
Conditions | first compound 0.781 µg/mL | first compound 1.25 µg/mL | first compound 1.562 µg/mL | first compound 2.5 µg/mL | first compound 3.124 µg/mL | first compound 5 µg/mL
S. aureus Newman [6], partner 85.5 µg/mL | ≥ 1 | – | ≥ 1 | – | ≥ 1 | –
S. aureus Newman [6], partner 171 µg/mL | ≥ 1 | – | ≥ 1 | – | ≥ 1 | –
S. aureus Newman [6], partner 342 µg/mL | ≥ 1 | – | ≥ 1 | – | ≥ 1 | –
S. pneumoniae D39V [8], partner 85.5 µg/mL | – | ≥ 1 | – | ≥ 1 | – | 0.979
S. pneumoniae D39V [8], partner 171 µg/mL | – | ≥ 1 | – | ≥ 1 | – | ≥ 1
S. pneumoniae D39V [8], partner 342 µg/mL | – | 0.952 | – | ≥ 1 | – | 0.95
